“Also recorded” adds a separate entry of the source. Read-outs that look alike come from different tables or passages of the source.
What was measured:
LmPTR1 = target: T1, LmPTR1 (Leishmania major, UniProt Q01782); assay: LmPTR1 inhibition, Cytochrome C coupled spectrophotometric assay; type: biochemical; settings: for IC50: recombinant protein, standard errors within ± 10%; for inhibition at 10 µM: primary screening, read-out: percentage of inhibition LmPTR1
T1 sequence (Q01782 1-288): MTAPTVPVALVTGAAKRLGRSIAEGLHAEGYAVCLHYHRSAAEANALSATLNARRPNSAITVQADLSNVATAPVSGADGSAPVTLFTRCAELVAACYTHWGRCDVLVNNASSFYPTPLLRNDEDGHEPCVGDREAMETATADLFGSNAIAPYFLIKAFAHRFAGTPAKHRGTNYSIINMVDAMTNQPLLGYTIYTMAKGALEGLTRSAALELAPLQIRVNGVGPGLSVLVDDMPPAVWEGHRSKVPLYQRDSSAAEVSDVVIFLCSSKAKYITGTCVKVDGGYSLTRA

T. cruzi = tested on: T. cruzi; set-up: method as in PMID 25740547; settings: parasite growth inhibition ref 21; cited from earlier work
L. donovani = tested on: L. donovani; set-up: method as in PMID 25740547; settings: parasite growth inhibition, data from open resource GSK database ref 21, cited from earlier work
LmDHFR-TS = LmDHFR-TS (Leishmania major, UniProt P07382); assay: LmDHFR-TS inhibition, spectrophotometric DHF reduction assay (dose-response); type: biochemical; settings: recombinant LmDHFR-TS; 40, 20 and 10 µM tested; standard errors within ± 10%
T. brucei = tested on: T. brucei; set-up: method as in PMID 25740547; settings: parasite growth inhibition, data from open resource GSK database ref 21, cited from earlier work
TbDHFR-TS = TbDHFR-TS (Trypanosoma brucei brucei, UniProt Q27783); assay: TbDHFR-TS inhibition, spectrophotometric DHF reduction assay (dose-response); type: biochemical; settings: recombinant TbDHFR-TS; 40, 20 and 10 µM tested; standard errors within ± 10%
TbPTR1 = target: T2, TbPTR1 (Trypanosoma brucei brucei, UniProt O76290); assay: TbPTR1 inhibition, Cytochrome C coupled spectrophotometric assay; type: biochemical; settings: for IC50: recombinant protein, standard errors within ± 10%; for inhibition at 10 µM: primary screening, read-out: percentage of inhibition TbPTR1
T2 sequence (O76290 1-268): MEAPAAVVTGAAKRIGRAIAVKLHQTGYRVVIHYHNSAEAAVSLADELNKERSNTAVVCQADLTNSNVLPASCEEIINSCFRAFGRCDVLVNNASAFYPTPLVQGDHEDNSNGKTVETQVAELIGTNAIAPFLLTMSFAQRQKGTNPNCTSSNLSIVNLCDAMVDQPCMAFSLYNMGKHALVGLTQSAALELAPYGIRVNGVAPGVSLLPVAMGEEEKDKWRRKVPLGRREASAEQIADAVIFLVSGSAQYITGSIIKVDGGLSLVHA

LmDHFR-TS, sequence (P07382 whole entry): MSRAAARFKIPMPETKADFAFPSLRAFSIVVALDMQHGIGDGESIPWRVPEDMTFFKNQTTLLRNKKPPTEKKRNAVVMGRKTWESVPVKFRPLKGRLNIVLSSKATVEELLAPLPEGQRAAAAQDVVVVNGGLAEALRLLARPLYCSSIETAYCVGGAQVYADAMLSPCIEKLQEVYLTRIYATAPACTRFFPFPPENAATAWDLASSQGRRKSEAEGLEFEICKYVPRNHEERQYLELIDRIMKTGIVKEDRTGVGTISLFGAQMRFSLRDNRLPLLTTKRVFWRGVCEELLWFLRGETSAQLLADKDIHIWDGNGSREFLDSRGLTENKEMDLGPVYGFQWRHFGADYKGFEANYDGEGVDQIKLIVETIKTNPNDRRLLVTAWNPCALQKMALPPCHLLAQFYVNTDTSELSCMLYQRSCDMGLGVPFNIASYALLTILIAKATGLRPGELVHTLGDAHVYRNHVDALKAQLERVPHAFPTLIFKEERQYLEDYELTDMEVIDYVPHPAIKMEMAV
TbDHFR-TS, sequence (Q27783 whole entry): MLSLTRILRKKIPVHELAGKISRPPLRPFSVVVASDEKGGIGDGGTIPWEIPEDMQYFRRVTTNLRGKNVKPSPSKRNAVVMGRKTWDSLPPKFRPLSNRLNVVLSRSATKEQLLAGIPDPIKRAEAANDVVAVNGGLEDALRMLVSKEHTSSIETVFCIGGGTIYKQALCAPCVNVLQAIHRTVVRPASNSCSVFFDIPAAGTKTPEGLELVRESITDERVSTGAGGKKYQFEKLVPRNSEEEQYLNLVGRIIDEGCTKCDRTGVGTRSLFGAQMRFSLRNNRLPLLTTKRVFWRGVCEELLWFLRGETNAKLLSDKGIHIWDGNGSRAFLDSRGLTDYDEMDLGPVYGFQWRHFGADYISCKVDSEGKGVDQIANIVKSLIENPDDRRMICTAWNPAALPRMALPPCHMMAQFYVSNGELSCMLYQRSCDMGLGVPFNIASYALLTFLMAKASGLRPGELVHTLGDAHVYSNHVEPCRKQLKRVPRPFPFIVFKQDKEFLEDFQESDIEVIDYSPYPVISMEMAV

| Compound | IC50 (LmPTR1) | EC50 (T. cruzi) | EC50 (L. donovani) | IC50 (LmDHFR-TS) | IC50 LmDHFR (LmDHFR-TS) | EC50 (T. brucei) | IC50 (TbDHFR-TS) | IC50 TbDHFR (TbDHFR-TS) | IC50 (TbPTR1) | inhibition at 10 µM (TbPTR1) | IC50 (LmPTR1; listed as 143606) | EC50 (L. donovani; listed as 143606) | EC50 (T. brucei; listed as 143606) | IC50 (TbPTR1; listed as 143606) | inhibition at 10 µM (LmPTR1) |
| --- | --- | --- | --- | --- | --- | --- | --- | --- | --- | --- | --- | --- | --- | --- | --- |
| N#Cc1cccc(Nc2nccc(N3CCC(NS(=O)(=O)c4cccc(C#N)c4)CC3)n2)c1 [TCMDC-143249] | 6 µM | 4.2 µM | 5.6 µM | > 40 µM | inactive; also recorded: no inhibition | 6.3 µM | > 40 µM | inactive; also recorded: no inhibition | 13.5 µM |  |  |  |  |  |  |
| Cc1cc(N(C)C)nc2ccc(Cc3cnc(N)nc3N)cc12 [TCMDC-143611] | 9.8 µM |  | > 40 µM | > 40 µM |  | 5 µM | > 40 µM |  | 8.9 µM |  |  |  |  |  |  |
| COc1ccc(C(C)N(C)c2ncc3c(N)nc(N)nc3n2)cc1F (centres unmarked) [TCMDC-143298] | 6 µM |  | 10.8 µM | > 40 µM | did not show any activity | 8.8 µM | > 40 µM | did not show any activity | 8.1 µM |  |  |  |  |  |  |
| COc1ccccc1-c1c(C)[nH]c2nc(N)nc(C)c12 [TCMDC-143610] | 9.3 µM |  | 17.9 µM | 40 µM |  | 32.5 µM | 38.2 µM |  | 7.3 µM |  |  |  |  |  |  |
| Cc1nc2c(-c3ncn[nH]3)cc(NC(=O)Cc3ccccc3)cn2c1C [TCMDC-143459] | > 40 µM |  | 0.5 µM | > 40 µM |  | 6.6 µM | > 40 µM |  | 9.8 µM | 51% |  |  |  |  |  |
| Cc1cc(-c2ccc3ccccc3c2)nc2nc(N)nc(N)c12 [TCMDC-143607] | 8.1 µM |  | 2.7 µM | > 40 µM |  | 25.8 µM | > 40 µM |  | 7.3 µM |  |  |  |  |  |  |
| CCCc1nc2nc(N)nc(N)c2cc1CC [TCMDC-143606] | ~6 µM |  | ~20 µM | 19.4 µM |  | ~20 µM | > 40 µM |  | ~6 µM |  | 6.8 µM | 27.2 µM | 22.5 µM | 6.4 µM |  |
| COc1ccc(Oc2ccc(C(C)N(C)c3ncc4c(N)nc(N)nc4n3)cc2)cc1 (centres unmarked) [TCMDC-143295] | 6.7 µM |  | 0.06 µM | 16.6 µM |  |  | > 40 µM | not active | 7.9 µM |  |  |  |  |  |  |
| CC(c1cc(Cl)cc(Cl)c1)N(C)c1ncc2c(N)nc(N)nc2n1 (centres unmarked) [TCMDC-143297] | 5.7 µM |  | 0.6 µM | 20.1 µM |  | 35.7 µM | 11.6 µM |  | 9.8 µM |  |  |  |  |  |  |
| CCN(Cc1nc2ccc(C(=O)N3CCN(c4ncccn4)CC3)cc2[nH]1)C1CCCc2cccnc21 (centres unmarked) [TCMDC-143518] | 8.5 µM |  | 3.5 µM | 25 µM |  | 3.8 µM | > 40 µM |  | 33.3 µM |  |  |  |  |  | 59% |
| O=C1NCCn2ccc(Nc3nc(N[C@H]4CC[C@H](O)CC4)ncc3Cl)c21 [TCMDC-143386] | 6.7 µM |  | 1.4 µM | 25.8 µM |  | 0.6 µM | > 40 µM |  | 35 µM |  |  |  |  |  | 75% |
| CC(c1ccc2c(c1)CCCC2)N(C)c1ncc2c(N)nc(N)nc2n1 (centres unmarked) [TCMDC-143296] | 6.5 µM |  | 1.8 µM | 6.9 µM |  | 14.2 µM | 9.7 µM |  | 8.6 µM |  |  |  |  |  |  |
| CN(Cc1cc2ccccc2s1)c1ncc2c(N)nc(N)nc2n1 [TCMDC-143232] | 5.9 µM |  | 29.5 µM | 24.4 µM |  | 28.4 µM | > 40 µM | not active | 10.9 µM |  |  |  |  |  |  |
| Cc1ccc2c(c1)-c1onc(C(=O)N3CCCC[C@H]3c3cccnc3)c1CO2 [TCMDC-143191] | 38.5 µM |  | > 40 µM | > 40 µM |  | 39.8 µM | > 40 µM |  | 9.8 µM | 51% |  |  |  |  |  |
